From ChEMBL document CHEMBL4609988, “Heterocycle amide isosteres: An approach to overcoming resistance for HIV-1 integrase strand transfer inhibitors” (Bioorg Med Chem Lett, 2020)

Assays:
[1] = system: Human immunodeficiency virus 1; assay: Antiviral activity against HIV1 NL4-3 by cellular assay; type: functional, organism-based; conditions: Human immunodeficiency virus 1, NL4-3
[2] = system: Human immunodeficiency virus 1; assay: Antiviral activity against HIV1 NL4-3 harboring N155H mutant by cellular assay; type: functional, organism-based; conditions: Human immunodeficiency virus 1, NL4-3
[3] = system: Human immunodeficiency virus 1; assay: Antiviral activity against HIV1 NL4-3 harboring Q148R mutant by cellular assay; type: functional, organism-based; conditions: Human immunodeficiency virus 1, NL4-3
[4] = system: Human immunodeficiency virus 1; assay: Antiviral activity against HIV1 NL4-3 harboring […]/Q148H mutant by cellular assay; type: functional, organism-based; conditions: Human immunodeficiency virus 1, NL4-3
[5] = system: Human immunodeficiency virus 1; assay: Ratio of EC50 for antiviral activity against HIV1 NL4-3 harboring G140S/Q148H mutant to EC50 for antiviral activity against HIV1 NL4-3; type: functional
[6] = system: Human immunodeficiency virus 1; assay: Ratio of EC50 for antiviral activity against HIV1 NL4-3 harboring N155H mutant to EC50 for antiviral activity against HIV1 NL4-3; type: functional
[7] = system: Human immunodeficiency virus 1; assay: Ratio of EC50 for antiviral activity against HIV1 NL4-3 harboring Q148R mutant to EC50 for antiviral activity against HIV1 NL4-3; type: functional
[8] = Clearance in rat at 1 mg/kg, iv; type: ADME, organism-based; conditions: in vivo
[9] = AUC in rat at 1 mg/kg, iv; type: ADME, organism-based; conditions: in vivo
[10] = Volume of distribution at steady state in rat at 1 mg/kg, iv; type: ADME, organism-based; conditions: in vivo, read-out: Vdss
[11] = target: Human immunodeficiency virus type 1 integrase (Human immunodeficiency virus 1, UniProt Q7ZJM1); assay: Inhibition of HIV-1 integrase strand transfer activity
Human immunodeficiency virus type 1 integrase, sequence (Q7ZJM1 whole entry): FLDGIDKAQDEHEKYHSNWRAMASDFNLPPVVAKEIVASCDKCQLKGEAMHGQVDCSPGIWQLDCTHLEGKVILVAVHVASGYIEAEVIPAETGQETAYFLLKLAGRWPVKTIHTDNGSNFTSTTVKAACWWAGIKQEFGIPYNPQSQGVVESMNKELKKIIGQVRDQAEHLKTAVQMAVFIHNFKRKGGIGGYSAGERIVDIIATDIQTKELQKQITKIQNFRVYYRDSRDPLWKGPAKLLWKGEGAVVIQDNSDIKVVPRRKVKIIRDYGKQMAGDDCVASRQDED

CC1(C)OCCn2c1nc(-c1ncc(Cc3ccc(F)cc3)s1)c(O)c2=O
EC50 [1]: 3 nM | EC50 [2]: 34 nM | EC50 [3]: 91 nM | EC50 [4]: 540 nM | Ratio EC50 [5]: 177 | Ratio EC50 [6]: 11 | Ratio EC50 [7]: 30

Cn1c(Cc2ccc(F)cc2)nnc1-c1nc2n(c(=O)c1O)CCOC2(C)C
EC50 [1]: 81 nM | EC50 [3]: 450 nM | EC50 [4]: 1100 nM

Cn1c(Cc2ccc(F)cc2)cnc1-c1nc2n(c(=O)c1O)CCOC2(C)C
clearance [8]: 11 mL/min/kg | EC50 [1]: 10 nM | EC50 [2]: 36 nM | EC50 [3]: 61 nM | EC50 [4]: 530 nM | AUC [9]: 3.92 µM·h | Vd [10]: 0.5 L/kg

CC1(C)OCCn2c1nc(-c1ncc(Cc3ccc(F)cc3)o1)c(O)c2=O
EC50 [1]: 22 nM | EC50 [2]: 88 nM | EC50 [3]: 330 nM | EC50 [4]: 6900 nM | Ratio EC50 [5]: 318 | Ratio EC50 [6]: 4 | Ratio EC50 [7]: 15

Cc1nc(-c2nc3n(c(=O)c2O)CCOC3(C)C)nn1Cc1ccc(F)cc1
EC50 [11]: > 30000 nM

CC1(C)OCCn2c1nc(-c1ncc(Cc3ccc(F)cc3)[nH]1)c(O)c2=O
clearance [8]: 10 mL/min/kg | EC50 [1]: 6 nM | EC50 [2]: 2 nM | EC50 [3]: 33 nM | EC50 [4]: 320 nM | Ratio EC50 [5]: 54 | AUC [9]: 4.55 µM·h | Vd [10]: 0.3 L/kg | Ratio EC50 [6]: 0.3 | Ratio EC50 [7]: 6

CC1(C)OCCn2c1nc(-c1nnc(Cc3ccc(F)cc3)o1)c(O)c2=O
EC50 [1]: 390 nM | EC50 [2]: 1300 nM | EC50 [3]: 190 nM | EC50 [4]: > 40000 nM | Ratio EC50 [5]: >100 | Ratio EC50 [6]: 3 | Ratio EC50 [7]: 0.5

CC1(C)OCCn2c1nc(-c1cc(Cc3ccc(F)cc3)[nH]n1)c(O)c2=O
EC50 [1]: 120 nM | EC50 [2]: 260 nM | EC50 [3]: 3000 nM | EC50 [4]: 4200 nM | Ratio EC50 [5]: 36 | Ratio EC50 [6]: 22 | Ratio EC50 [7]: 26

CC1(C)OCCn2c1nc(-c1nc(Cl)c(Cc3ccc(F)cc3)[nH]1)c(O)c2=O
EC50 [11]: > 64000 nM

Cn1cc(Cc2ccc(F)cc2)nc1-c1nc2n(c(=O)c1O)CCOC2(C)C
EC50 [11]: 9300 nM

CC1(C)OCCn2c1nc(-c1nnc(Cc3ccc(F)cc3)[nH]1)c(O)c2=O
EC50 [1]: 81 nM | EC50 [2]: 4000 nM | EC50 [3]: 1500 nM | EC50 [4]: > 40000 nM | Ratio EC50 [5]: >500 | Ratio EC50 [6]: 49 | Ratio EC50 [7]: 19

CC1(C)OCCn2c1nc(-c1cn(Cc3ccc(F)cc3)cn1)c(O)c2=O
clearance [8]: 127 mL/min/kg | EC50 [1]: 4 nM | EC50 [2]: 9 nM | EC50 [3]: 26 nM | EC50 [4]: 320 nM | Ratio EC50 [5]: 80 | AUC [9]: 0.353 µM·h | Vd [10]: 3.5 L/kg | Ratio EC50 [6]: 2 | Ratio EC50 [7]: 7

CC1(C)OCCn2c1nc(C(=O)NCc1ccc(F)cc1)c(O)c2=O
EC50 [1]: 3 nM | EC50 [2]: 140 nM | EC50 [3]: 300 nM | EC50 [4]: > 8000 nM | Ratio EC50 [5]: >2666 | Ratio EC50 [6]: 47 | Ratio EC50 [7]: 99

CC1(C)OCCn2c1nc(-c1ncn(Cc3ccc(F)cc3)n1)c(O)c2=O
clearance [8]: 52 mL/min/kg | EC50 [1]: 7 nM | EC50 [2]: 16 nM | EC50 [3]: 220 nM | EC50 [4]: 3700 nM | Ratio EC50 [5]: 563 | AUC [9]: 0.872 µM·h | Vd [10]: 1.5 L/kg | Ratio EC50 [6]: 2 | Ratio EC50 [7]: 34
